# According to PubChem BioAssay AID1745844 (Carcinogenic Potency Database (CPDB), 2022):
# Active and inactive are the calls of the source. No rule for the calls is given here.
# Test system: rodent lifetime carcinogenesis bioassay, tumor incidence TD50
# Assay: chronic cancer bioassays in animals – CPDB, compiled studies (AID 1745844)
smiles,measurement,setting,value
CC(O)C(=O)O (configuration not stated),TD50,"rat, strain F344/DuCrj, females, in drinking water, site: any site (literature study), lesion: one or several types, types not named, dosed 104 weeks, study length 113 weeks",103000 mg/kg/day
same,TD50,"rat, strain F344/DuCrj, males, in drinking water, site: liver, lesion: hepatocellular adenoma, dosed 104 weeks, study length 113 weeks",54500 mg/kg/day
CC=O,TD50,"hamster, strain Syrian Golden, females, inhaled, site: larynx, lesion: adenosquamous carcinoma, dosed 52 weeks, study length 81 weeks",1140 mg/kg/day
same,TD50,"hamster, strain Syrian Golden, females, inhaled, site: larynx, lesion: several types, types named in the paper, dosed 52 weeks, study length 81 weeks",728 mg/kg/day
same,TD50,"hamster, strain Syrian Golden, females, inhaled, site: larynx, lesion: squamous-cell carcinoma, dosed 52 weeks, study length 81 weeks",2360 mg/kg/day
same,TD50,"hamster, strain Syrian Golden, males, inhaled, site: larynx, lesion: carcinoma, in situ, dosed 52 weeks, study length 81 weeks",641 mg/kg/day
same,TD50,"hamster, strain Syrian Golden, males, inhaled, site: larynx, lesion: several types, types named in the paper, dosed 52 weeks, study length 81 weeks",461 mg/kg/day
same,TD50,"hamster, strain Syrian Golden, males, inhaled, site: larynx, lesion: squamous-cell carcinoma, dosed 52 weeks, study length 81 weeks",2070 mg/kg/day
same,TD50,"hamster, strain Syrian Golden, males, inhaled, site: nose, lesion: anaplastic carcinoma, dosed 52 weeks, study length 81 weeks",2070 mg/kg/day
same,TD50,"hamster, strain Syrian Golden, males, inhaled, site: respiratory system, lesion: several types, types named in the paper, dosed 52 weeks, study length 81 weeks",461 mg/kg/day
same,TD50,"rat, strain Wistar-random, females, inhaled, site: nasal mucosa, lesion: adenocarcinoma, dosed 50 weeks, study length 105 weeks",201 mg/kg/day
same,TD50,"rat, strain Wistar-random, females, inhaled, site: nasal mucosa, lesion: several types, types named in the paper, dosed 50 weeks, study length 105 weeks",148 mg/kg/day
same,TD50,"rat, strain Wistar-random, females, inhaled, site: nasal mucosa, lesion: squamous-cell carcinoma, dosed 50 weeks, study length 105 weeks",574 mg/kg/day
same,TD50,"rat, strain Wistar-random, males, inhaled, site: nasal mucosa, lesion: adenocarcinoma, dosed 50 weeks, study length 105 weeks",190 mg/kg/day
same,TD50,"rat, strain Wistar-random, males, inhaled, site: nasal mucosa, lesion: several types, types named in the paper, dosed 50 weeks, study length 105 weeks",88.5 mg/kg/day
same,TD50,"rat, strain Wistar-random, males, inhaled, site: nasal mucosa, lesion: squamous-cell carcinoma, dosed 50 weeks, study length 105 weeks",200 mg/kg/day
same,TD50,"rat, strain Wistar, females, inhaled, site: nose, lesion: adenocarcinoma, dosed 111 weeks, study length 121 weeks",370 mg/kg/day
same,TD50,"rat, strain Wistar, females, inhaled, site: nose, lesion: carcinoma, in situ, dosed 111 weeks, study length 121 weeks",3000 mg/kg/day
same,TD50,"rat, strain Wistar, females, inhaled, site: nose, lesion: squamous-cell carcinoma, dosed 111 weeks, study length 121 weeks",1030 mg/kg/day
same,TD50,"rat, strain Wistar, males, inhaled, site: nose, lesion: adenocarcinoma, dosed 111 weeks, study length 121 weeks",185 mg/kg/day
same,TD50,"rat, strain Wistar, males, inhaled, site: nose, lesion: squamous-cell carcinoma, dosed 111 weeks, study length 121 weeks",627 mg/kg/day
C=C(Cl)Cl,TD50,"mouse, strain B6C3F1, females, by gavage, site: all sites, lesion: leukemia + lymphoma, dosed 104 weeks, study length 104 weeks",3.9 mg/kg/day (inactive)
same,TD50,"mouse, strain B6C3F1, females, by gavage, site: all sites, lesion: lymphoma, dosed 104 weeks, study length 104 weeks",4.02 mg/kg/day
same,TD50,"mouse, strain B6C3F1, females, by gavage, site: any site (literature study), lesion: several types, types named in the paper, dosed 104 weeks, study length 104 weeks",2.09 mg/kg/day
same,TD50,"mouse, strain B6C3F1, females, by gavage, site: lung, lesion: alveolar/bronchiolar adenoma + alveolar/bronchiolar carcinoma, dosed 104 weeks, study length 104 weeks",66.7 mg/kg/day
same,TD50,"mouse, strain B6C3F1, males, by gavage, site: any site (literature study), lesion: several types, types named in the paper, dosed 104 weeks, study length 104 weeks",34.8 mg/kg/day (inactive)
same,TD50,"mouse, strain B6C3F1, males, by gavage, site: liver, lesion: hepatocellular adenoma + hepatocellular carcinoma + neoplastic nodule, dosed 104 weeks, study length 104 weeks",133 mg/kg/day
same,TD50,"mouse, strain B6C3F1, males, by gavage, site: lung, lesion: alveolar/bronchiolar adenoma + alveolar/bronchiolar carcinoma, dosed 104 weeks, study length 104 weeks",60.4 mg/kg/day
same,carcinogen call,"mouse, strain Charles River CD1, females, inhaled, site: liver, lesion: hemangiosarcoma, dosed 26 weeks, study length 78 weeks",negative (inactive)
same,TD50,"mouse, strain Charles River CD1, females, inhaled, site: liver, lesion: hemangiosarcoma, dosed 52 weeks, study length 52 weeks",170 mg/kg/day
same,carcinogen call,"mouse, strain Charles River CD1, females, inhaled, site: liver, lesion: hepatocellular tumor, dosed 26 weeks, study length 78 weeks",negative (inactive)
same,TD50,"mouse, strain Charles River CD1, females, inhaled, site: liver, lesion: hepatoma, dosed 52 weeks, study length 52 weeks",170 mg/kg/day
same,carcinogen call,"mouse, strain Charles River CD1, females, inhaled, site: lung, lesion: alveolar/bronchiolar tumor, dosed 26 weeks, study length 78 weeks",negative (inactive)
same,carcinogen call,"mouse, strain Charles River CD1, males, inhaled, site: liver, lesion: hepatocellular tumor, dosed 26 weeks, study length 78 weeks",negative (inactive)
same,carcinogen call,"mouse, strain Charles River CD1, males, inhaled, site: lung, lesion: alveolar/bronchiolar tumor, dosed 26 weeks, study length 78 weeks",negative (inactive)
same,TD50,"mouse, strain Swiss, females, inhaled, site: any site (literature study), lesion: malignant tumor, dosed 52 weeks, study length 126 weeks",86.1 mg/kg/day
same,TD50,"mouse, strain Swiss, females, inhaled, site: any site (literature study), lesion: several types, types named in the paper, dosed 52 weeks, study length 126 weeks",30.9 mg/kg/day
same,TD50,"mouse, strain Swiss, females, inhaled, site: liver, lesion: hepatoma, dosed 52 weeks, study length 126 weeks",858 mg/kg/day
same,TD50,"mouse, strain Swiss, females, inhaled, site: lung, lesion: several types, types named in the paper, dosed 52 weeks, study length 126 weeks",124 mg/kg/day
same,TD50,"mouse, strain Swiss, females, inhaled, site: mammary gland, lesion: several types, types named in the paper, dosed 52 weeks, study length 126 weeks",80.9 mg/kg/day
same,TD50,"mouse, strain Swiss, males, inhaled, site: any site (literature study), lesion: malignant tumor, dosed 52 weeks, study length 126 weeks",50.3 mg/kg/day
same,TD50,"mouse, strain Swiss, males, inhaled, site: any site (literature study), lesion: several types, types named in the paper, dosed 52 weeks, study length 126 weeks",17.9 mg/kg/day
same,TD50,"mouse, strain Swiss, males, inhaled, site: kidney, lesion: adenocarcinoma, dosed 52 weeks, study length 126 weeks",22 mg/kg/day
same,TD50,"mouse, strain Swiss, males, inhaled, site: liver, lesion: angiosarcoma, dosed 52 weeks, study length 126 weeks",566 mg/kg/day
same,TD50,"mouse, strain Swiss, males, inhaled, site: lung, lesion: several types, types named in the paper, dosed 52 weeks, study length 126 weeks",59.9 mg/kg/day
same,carcinogen call,"rat, strain Charles River CD (Sprague-Dawley), females, inhaled, site: liver, lesion: several types, types named in the paper, dosed 26 weeks, study length 78 weeks",negative (inactive)
same,carcinogen call,"rat, strain Charles River CD (Sprague-Dawley), females, inhaled, site: liver, lesion: several types, types named in the paper, dosed 43 weeks, study length 95 weeks",negative (inactive)
same,carcinogen call,"rat, strain Charles River CD (Sprague-Dawley), males, inhaled, site: liver, lesion: several types, types named in the paper, dosed 26 weeks, study length 78 weeks",negative (inactive)
same,carcinogen call,"rat, strain Charles River CD (Sprague-Dawley), males, inhaled, site: liver, lesion: several types, types named in the paper, dosed 43 weeks, study length 95 weeks",negative (inactive)
same,carcinogen call,"rat, strain Fischer 344, females, by gavage, site: any site (literature study), lesion: several types, types named in the paper, dosed 104 weeks, study length 104 weeks",negative (inactive)
same,carcinogen call,"rat, strain Fischer 344, males, by gavage, site: any site (literature study), lesion: several types, types named in the paper, dosed 104 weeks, study length 104 weeks",negative (inactive)
same,TD50,"rat, strain Sprague-Dawley Spartan, females, in drinking water, site: liver, lesion: hepatocellular carcinoma, dosed 104 weeks, study length 104 weeks",654 mg/kg/day (inactive)
same,TD50,"rat, strain Sprague-Dawley Spartan, females, in drinking water, site: liver, lesion: neoplastic nodule, dosed 104 weeks, study length 104 weeks",414 mg/kg/day (inactive)
same,TD50,"rat, strain Sprague-Dawley Spartan, females, in drinking water, site: mammary gland, lesion: fibroadenoma, dosed 104 weeks, study length 104 weeks",679 mg/kg/day (inactive)
same,carcinogen call,"rat, strain Sprague-Dawley Spartan, females, in drinking water, site: pituitary gland, lesion: adenoma, dosed 104 weeks, study length 104 weeks",negative (inactive)
same,carcinogen call,"rat, strain Sprague-Dawley Spartan, females, inhaled, site: liver, lesion: cholangioma, dosed 78 weeks, study length 104 weeks",negative (inactive)
same,TD50,"rat, strain Sprague-Dawley Spartan, females, inhaled, site: mammary gland, lesion: adenocarcinoma, dosed 78 weeks, study length 104 weeks",49.8 mg/kg/day (inactive)
same,TD50,"rat, strain Sprague-Dawley Spartan, females, inhaled, site: mammary gland, lesion: fibroadenoma, dosed 78 weeks, study length 104 weeks",16 mg/kg/day (inactive)
same,TD50,"rat, strain Sprague-Dawley Spartan, males, in drinking water, site: liver, lesion: hepatocellular carcinoma, dosed 104 weeks, study length 104 weeks",22900 mg/kg/day (inactive)
same,carcinogen call,"rat, strain Sprague-Dawley Spartan, males, in drinking water, site: liver, lesion: neoplastic nodule, dosed 104 weeks, study length 104 weeks",negative (inactive)
same,carcinogen call,"rat, strain Sprague-Dawley Spartan, males, inhaled, site: liver, lesion: sarcoma, dosed 78 weeks, study length 104 weeks",negative (inactive)
same,TD50,"rat, strain Sprague-Dawley, females, by gavage, site: liver, lesion: angiosarcoma, dosed 52 weeks, study length 136 weeks",0.501 mg/kg/day
same,TD50,"rat, strain Sprague-Dawley, females, inhaled, site: any site (literature study), lesion: several types, types named in the paper, dosed 104 weeks, study length 150 weeks",119 mg/kg/day
same,TD50,"rat, strain Sprague-Dawley, females, inhaled, site: liver, lesion: several types, types named in the paper, dosed 104 weeks, study length 150 weeks",847 mg/kg/day
same,TD50,"rat, strain Sprague-Dawley, males, by gavage, site: any site (literature study), lesion: several types, types named in the paper, dosed 52 weeks, study length 136 weeks",5.32 mg/kg/day
OC[C@@H](O)[C@@H](O)[C@H](O)[C@H](O)CO,TD50,"mouse, strain B6C3F1, females, in feed, site: all sites, lesion: hemangiosarcoma, dosed 103 weeks, study length 104 weeks",46700 mg/kg/day (inactive)
same,TD50,"mouse, strain B6C3F1, females, in feed, site: all sites, lesion: lymphocytic leukemia, dosed 103 weeks, study length 104 weeks",48000 mg/kg/day
same,carcinogen call,"mouse, strain B6C3F1, males, in feed, site: any site (literature study), lesion: several types, types named in the paper, dosed 103 weeks, study length 104 weeks",negative (inactive)
same,TD50,"mouse, strain B6C3F1, males, in feed, site: lung, lesion: alveolar/bronchiolar adenoma + alveolar/bronchiolar carcinoma, dosed 103 weeks, study length 104 weeks",98100 mg/kg/day
same,TD50,"rat, strain Fischer 344, females, in feed, site: any site (literature study), lesion: several types, types named in the paper, dosed 103 weeks, study length 104 weeks",5000 mg/kg/day (inactive)
same,carcinogen call,"rat, strain Fischer 344, males, in feed, site: any site (literature study), lesion: several types, types named in the paper, dosed 103 weeks, study length 104 weeks",negative (inactive)
same,TD50,"rat, strain Fischer 344, males, in feed, site: liver, lesion: hepatocellular adenoma + hepatocellular carcinoma + neoplastic nodule, dosed 103 weeks, study length 104 weeks",18000 mg/kg/day
